Results on 20 molecules are retold here after patent US7470684B2, “Spiropiperidine derivatives as NK3 antagonists” (Hoffmann-La Roche Inc., priority 2007, dated 2008).

For orientation: Ki means a measure of affinity in units of concentration, obtained from inhibition or displacement.

Counter-ions that a name gives are not always drawn. Like-named read-outs stand apart in the source and are kept apart here.

This assay addresses T1, human NK3 receptor (Homo sapiens, UniProt P29371).
T1 construct: expressed in transfected cells; host or cells: HEK293 cells, transiently transfected; membranes
T1 sequence (P29371 1-465): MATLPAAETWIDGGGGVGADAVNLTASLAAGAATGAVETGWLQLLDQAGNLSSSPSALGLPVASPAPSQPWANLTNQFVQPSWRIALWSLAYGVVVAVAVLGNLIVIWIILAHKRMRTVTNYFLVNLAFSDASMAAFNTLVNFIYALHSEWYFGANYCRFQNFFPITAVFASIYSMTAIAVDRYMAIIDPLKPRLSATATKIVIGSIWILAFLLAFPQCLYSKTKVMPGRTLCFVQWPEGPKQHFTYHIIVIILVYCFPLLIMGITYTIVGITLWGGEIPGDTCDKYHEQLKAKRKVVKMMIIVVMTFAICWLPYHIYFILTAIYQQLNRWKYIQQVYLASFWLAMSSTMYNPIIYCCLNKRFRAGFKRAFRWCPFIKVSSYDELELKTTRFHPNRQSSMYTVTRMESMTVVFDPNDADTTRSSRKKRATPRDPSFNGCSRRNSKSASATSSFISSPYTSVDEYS
Briefly: [3H]SR142801 competition binding assay. How it is done:
[^3H]SR142801 Competition Binding Assay
hNK3 receptor binding experiment were performed using [^3H]SR142801 (Catalog No. TRK1035, specific activity: 74.0 Ci/mmol, Amersham, GE Healthcare UK limited, Buckinghamshire, UK) and membrane isolated from HEK293 cells transiently expressing recombinant human NK3 receptor. After thawing, the membrane homogenates were centrifuged at 48,000×g for 10 min at 4° C., the pellets were resuspended in the 50 mM Tris-HCl, 4 mM MnCl2, 1 μM phosphoramidon, 0.1% BSA binding buffer at pH 7.4 to a final assay concentration of 5 μg protein/well. For inhibition experiments, membranes were incubated with [^3H]SR142801 at a concentration equal to KD value of radioligand and 10 concentrations of the inhibitory compound (0.0003-10 μM) (in a total reaction volume of 500 μl) for 75 min at room temperature (RT). At the end of the incubation, membranes were filtered onto unitfilter (96-well white microplate with bonded GF/C filter preincubated 1 h in 0.3% PEI+0.3% BSA, Packard BioScience, Meriden, Conn.) with a Filtermate 196 harvester (Packard BioScience) and washed 4 times with ice-cold 50 mM Tris-HCl, pH 7.4 buffer. Nonspecific binding was measured in the presence of 10 μM SB222200 for both radioligands. The radioactivity on the filter was counted (5 min) on a Packard Top-count microplate scintillation counter with quenching correction after addition of 45 μl of microscint 40 (Canberra Packard S.A., Zürich, Switzerland) and shaking for 1 h. Inhibition curves were fitted according to the Hill equation: y=100/(1+(x/IC50)^nH), where nH=slope factor using Excel-fit 4 software (Microsoft). IC50 values were derived from the inhibition curve and the affinity constant (Ki) values were calculated using the Cheng-Prussoff equation Ki=IC50/(1+[L]/KD) where [L] is the concentration of radioligand and KD is its dissociation constant at the receptor, derived from the saturation isotherm. All experiments were performed in duplicate and the mean±standard error (SEM) of the individual Ki values was calculated.

Where [1] appears, read: hNK3 Ki, [3H]SR142801 displacement, membranes of HEK293 cells transiently expressing recombinant human NK3 receptor.
Where [2] appears, read: [3H]SR142801 displacement, membranes of HEK293 cells transiently expressing recombinant human NK3 receptor, read-out: hNK3 Ki.

Consider `CN1C(=O)OC2(CCN(CCC(C(=O)NCc3cccc(C(F)(F)F)c3)c3ccc(Cl)c(Cl)c3)CC2)c2cc(F)ccc21` (centres unmarked) [Example 108, 2-(3,4-dichlorophenyl)-4-(6-fluoro-1-methyl-2-oxo-1,2-dihydro-1′H-spiro[3,1-benzoxazine-4,4′-piperidin]-1′-yl)-N-[3-(trifluoromethyl)benzyl]butanamide], for which the Ki under setting [1] was found to be 3 nM. The same measure, in the same setting: the result for `CN(Cc1ccc(Cl)cc1)C(=O)C(CCN1CCC2(CC1)OC(=O)Nc1ccc(F)cc12)c1ccc(Cl)c(Cl)c1` (centres unmarked) [Example 15, N-(4-chlorobenzyl)-2-(3,4-dichlorophenyl)-4-(6-fluoro-2-oxo-1,2-dihydro-1′H-spiro[3,1-benzoxazine-4,4′-piperidin]-1′-yl)-N-methylbutanamide] reads 3.7 nM; that for `CN(Cc1ccccc1Cl)C(=O)C(CCN1CCC2(CC1)OC(=O)Nc1ccc(F)cc12)c1ccc(Cl)c(Cl)c1` (centres unmarked) [Example 17, N-(2-chlorobenzyl)-2-(3,4-dichlorophenyl)-4-(6-fluoro-2-oxo-1,2-dihydro-1′H-spiro[3,1-benzoxazine-4,4′-piperidin]-1′-yl)-N-methylbutanamide], 6.7 nM; that for `CN1C(=O)OC2(CCN(CCC(C(=O)NCc3cccc(OC(F)(F)F)c3)c3ccc(Cl)c(Cl)c3)CC2)c2cc(F)ccc21` (centres unmarked) [Example 103, 2-(3,4-dichlorophenyl)-4-(6-fluoro-1-methyl-2-oxo-1,2-dihydro-1′H-spiro[3,1-benzoxazine-4,4′-piperidin]-1′-yl)-N-[3-(trifluoromethoxy)benzyl]butanamide], 3.7 nM. For `CN(Cc1ccc(-c2ccncc2)cc1)C(=O)C(CCN1CCC2(CC1)OC(=O)Nc1ccc(F)cc12)c1ccc(Cl)c(Cl)c1` (centres unmarked) [Example 72, 2-(3,4-dichlorophenyl)-4-(6-fluoro-2-oxo-1,2-dihydro-1′H-spiro[3,1-benzoxazine-4,4′-piperidin]-1′-yl)-N-methyl-N-(4-pyridin-4-ylbenzyl)butanamide], the Ki under setting [2] was found to be 18.7 nM. `Cc1ccc(CNC(=O)C(CCN2CCC3(CC2)OC(=O)N(C)c2ccc(F)cc23)c2ccc(Cl)c(Cl)c2)cc1` (centres unmarked) [Example 31, 2-(3,4-dichlorophenyl)-4-(6-fluoro-1-methyl-2-oxo-1,2-dihydro-1′H-spiro[3,1-benzoxazine-4,4′-piperidin]-1′-yl)-N-(4-methylbenzyl)butanamide]: the Ki under setting [1] came out at 5.8 nM. The same measure, in the same setting: to `C[C@H](NC(=O)[C@H](CCN1CCC2(CC1)OC(=O)Nc1ccc(F)cc12)c1ccc(Cl)c(Cl)c1)c1ccccc1` [Example 146, (2R)-2-(3,4-dichlorophenyl)-4-(6-fluoro-2-oxo-1,2-dihydro-1′H-spiro[3,1-benzoxazine-4,4′-piperidin]-1′-yl)-N-[(1S)-1-phenylethyl]butanamidehydrochloride] belongs 5.7 nM.

In turn, `CCCCN(C)C(=O)C(CCN1CCC2(CC1)OC(=O)Nc1ccc(F)cc12)c1ccc(Cl)c(Cl)c1` (centres unmarked) [Example 14, N-butyl-2-(3,4-dichlorophenyl)-4-(6-fluoro-2-oxo-1,2-dihydro-1′H-spiro[3,1-benzoxazine-4,4′-piperidin]-1′-yl)-N-methylbutanamide] gave a Ki of 90.8 nM. Regarding `CN(Cc1cccc(C(F)(F)F)c1)C(=O)C(CCN1CCC2(CC1)OC(=O)Nc1ccc(F)cc12)c1ccc(Cl)c(Cl)c1` (centres unmarked) [Example 79, 2-(3,4-dichlorophenyl)-4-(6-fluoro-2-oxo-1,2-dihydro-1′H-spiro[3,1-benzoxazine-4,4′-piperidin]-1′-yl)-N-methyl-N-[3-(trifluoromethyl)benzyl]butanamide], under setting [1], the Ki was 6.6 nM. The same measure, in the same setting: to `CN(Cc1cccc(Cl)c1)C(=O)C(CCN1CCC2(CC1)OC(=O)Nc1ccc(F)cc12)c1ccc(F)cc1` (centres unmarked) [Example 25, N-(3-chlorobenzyl)-4-(6-fluoro-2-oxo-1,2-dihydro-1′H-spiro[3,1-benzoxazine-4,4′-piperidin]-1′-yl)-2-(4-fluorophenyl)-N-methylbutanamide] belongs 59.4 nM. Consider `CN(Cc1cccc(Cl)c1)C(=O)C(CCN1CCC2(CC1)OC(=O)N(C)c1ccc(F)cc12)c1ccc(Cl)c(Cl)c1` (centres unmarked) [Example 40, N-(3-chlorobenzyl)-2-(3,4-dichlorophenyl)-4-(6-fluoro-1-methyl-2-oxo-1,2-dihydro-1′H-spiro[3,1-benzoxazine-4,4′-piperidin]-1′-yl)-N-methylbutanamide], for which, under setting [1], the Ki came out at 1.1 nM.

`O=C1Nc2ccc(F)cc2C2(CCN(CCC(C(=O)NCc3ccccc3OC(F)(F)F)c3ccc(Cl)c(Cl)c3)CC2)O1` (centres unmarked) [Example 66, 2-(3,4-dichlorophenyl)-4-(6-fluoro-2-oxo-1,2-dihydro-1′H-spiro[3,1-benzoxazine-4,4′-piperidin]-1′-yl)-N-[2-(trifluoromethoxy)benzyl]butanamide]: the Ki under setting [1] is 28.8 nM. For the molecule `O=C1Nc2ccc(F)cc2C2(CCN(CCC(C(=O)NCc3ccc(OC(F)(F)F)cc3)c3ccc(Cl)c(Cl)c3)CC2)O1` (centres unmarked) [Example 85, 2-(3,4-dichlorophenyl)-4-(6-fluoro-2-oxo-1,2-dihydro-1′H-spiro[3,1-benzoxazine-4,4′-piperidin]-1′-yl)-N-[4-(trifluoromethoxy)benzyl]butanamide], the Ki under setting [1] worked out at 69.9 nM. On to `CN(Cc1cccc(F)c1)C(=O)C(CCN1CCC2(CC1)OC(=O)Nc1ccc(F)cc12)c1ccc(Cl)c(Cl)c1` (centres unmarked) [Example 76, 2-(3,4-dichlorophenyl)-N-(3-fluorobenzyl)-4-(6-fluoro-2-oxo-1,2-dihydro-1′H-spiro[3,1-benzoxazine-4,4′-piperidin]-1′-yl)-N-methylbutanamide], for which the inhibition constant (Ki) under setting [1] was 4.6 nM. For the molecule `CN(Cc1ccc(F)cc1)C(=O)C(CCCN1CCC2(CC1)OC(=O)Nc1ccc(F)cc12)c1ccc(Cl)c(Cl)c1` (centres unmarked) [Example 131, 2-(3,4-dichlorophenyl)-N-(4-fluorobenzyl)-5-(6-fluoro-2-oxo-1,2-dihydro-1′H-spiro[3,1-benzoxazine-4,4′-piperidin]-1′-yl)-N-methylpentanamide], the Ki under setting [1] turned out to be 69.2 nM. `COc1ccc(CNC(=O)C(CCN2CCC3(CC2)OC(=O)N(C)c2ccc(F)cc23)c2ccc(Cl)c(Cl)c2)cc1` (centres unmarked) [Example 107, 2-(3,4-dichlorophenyl)-4-(6-fluoro-1-methyl-2-oxo-1,2-dihydro-1′H-spiro[3,1-benzoxazine-4,4′-piperidin]-1′-yl)-N-(4-methoxybenzyl)butanamide]: under setting [1], the Ki is 5.4 nM. Regarding `CN(Cc1ccc(C(F)(F)F)cc1)C(=O)C(CCN1CCC2(CC1)OC(=O)N(C)c1ccc(F)cc12)c1ccc(Cl)c(Cl)c1` (centres unmarked) [Example 93, 2-(3,4-dichlorophenyl)-4-(6-fluoro-1-methyl-2-oxo-1,2-dihydro-1′H-spiro[3,1-benzoxazine-4,4′-piperidin]-1′-yl)-N-methyl-N-[4-(trifluoromethyl)benzyl]butanamide], the Ki under setting [1] amounted to 0.6 nM. The same measure, in the same setting: to `CCN(Cc1ccccc1F)C(=O)C(CCN1CCC2(CC1)OC(=O)Nc1ccc(F)cc12)c1ccc(Cl)c(Cl)c1` (centres unmarked) [Example 12, 2-(3,4-dichlorophenyl)-N-ethyl-N-(2-fluorobenzyl)-4-(6-fluoro-2-oxo-1,2-dihydro-1′H-spiro[3,1-benzoxazine-4,4′-piperidin]-1′-yl)butanamide] belongs 31.2 nM.

In the case of `CN(Cc1ccc(-c2ccncc2)cc1)C(=O)C(CCN1CCC2(CC1)OC(=O)N(C)c1ccc(F)cc12)c1ccc(Cl)c(Cl)c1` (centres unmarked) [Example 97, 2-(3,4-dichlorophenyl)-4-(6-fluoro-1-methyl-2-oxo-1,2-dihydro-1′H-spiro[3,1-benzoxazine-4,4′-piperidin]-1′-yl)-N-methyl-N-(4-pyridin-4-ylbenzyl)butanamide], the affinity corresponds to a Ki of 9.4 nM.

For `CN(Cc1ccc(Cl)cc1)C(=O)[C@@H](CCN1CCC2(CC1)OC(=O)N(C)c1ccc(F)cc12)c1ccc(Cl)c(Cl)c1` [Example 148, (2S)-N-(4-chlorobenzyl)-2-(3,4-dichlorophenyl)-4-(6-fluoro-1-methyl-2-oxo-1,2-dihydro-1′H-spiro[3,1-benzoxazine-4,4′-piperidin]-1′-yl)-N-methylbutanamide], the Ki under setting [2] turned out to be 0.4 nM.
